Experimental data as given in patent US10231967B2, “Compounds and their use as BACE inhibitors” (ASTRAZENECA AB, priority 2010, dated 2019).

tested on: sAPPβ release in SH-SY5Y cells; assay: sAPPβ release assay; assay type: cell-based; settings: Homo sapiens, SH-SY5Y, 17 h, compounds incubated 17 h, MSD detection
Protocol: Thaw cells and seed at a conc. of around 10000 cells/well in DMEM/F-12 with Glutamax, 10% FCS and 1% non-essential amino acids to a 384-well tissue culture treated plate, 100 μL cell susp/well. […] The cell medium was removed, followed by addition of 30 μL compound diluted in DMEM/F-12 with Glutamax, 10% FCS, 1% non-essential amino acids and 1% PeSt to a final conc. of 1% DMSO. The compounds were incubated with the cells for 17 h (overnight) at 37° C., 5% CO2. Meso Scale Discovery (MSD) plates were used for the detection of sAPPβ release. MSD sAPPβ plates were blocked in 1% BSA in Tris wash buffer (40 μL/well) for 1 h on shake at r.t. and washed 1 time in Tris wash buffer (40 μL/well). 20 μL of medium was transferred to the pre-blocked and washed MSD sAPPβ microplates, and the cell plates were further used in an ATP assay to measure cytotoxicity. The MSD plates were incubated with shaking at r.t. for 2 h and the media discarded. 10 μL detection antibody was added (1 nM) per well followed by incubation with shaking at r.t. for 2 h and then discarded. 40 μL Read Buffer was added per well and the plates were read in a SECTOR Imager.

Structure (SMILES) | IC50
COC1CCC2(CC1)Cc1ccc(Br)cc1[C@@]21N=C(C)C(N)=N1 (single isomer, unassigned) [Example 19 Isomer 1] | 18 nM
CC1=NC2(CC(C3CCCOC3)Oc3ccc(Br)cc32)N=C1N (single isomer, unassigned) [Example 47 Isomer 2, 6-Bromo-5′-methyl-2-(tetrahydro-2H-pyran-3-yl)spiro[chromane-4,2′-imidazole]-4′-amine] | 657 nM
CC1=NC2(CCOc3ccc(NC(=O)c4ccc(Cl)cn4)cc32)N=C1N (stereo not drawn) [Example 13a, N-(4′-Amino-5′-methylspiro[chroman-4,2′-imidazole]-6-yl)-5-chloropicolinamide] | 501 nM
CC1=NC2(CCOc3ccc(NC(=O)c4ncc(Cl)cc4Cl)cc32)N=C1N (stereo not drawn) [Example 13i, N-(4′-Amino-5′-methylspiro[chroman-4,2′-imidazole]-6-yl)-3,5-dichloropicolinamide] | 160 nM
CO[C@H]1CC[C@]2(CC1)Cc1ccc(C#CC(C)(C)C)cc1C21N=C(C)C(N)=N1 (stereo partly drawn) [Example 20h] | 7.1 nM
CO[C@H]1CC[C@]2(CC1)Cc1ccc(NC(=O)c3ccc(C(F)(F)F)cn3)cc1C21N=C(C)C(N)=N1 (stereo partly drawn) [Example 20k, N-[(1r,4r)-4″-Amino-4-methoxy-5″-methyl-3′H-dispiro[cyclohexane-1,2′-indene-1′,2″-imidazol]-6′-yl]-5-(trifluoromethyl)pyridine-2-carboxamide] | 8.6 nM
CO[C@H]1CC[C@]2(CC1)Cc1ccc(NC(=O)c3ncc(Cl)cc3Cl)cc1C21N=C(C)C(N)=N1 (stereo partly drawn) [Example 20o, N-[(1r,4r)-4″-Amino-4-methoxy-5″-methyl-3′H-dispiro[cyclohexane-1,2′-indene-1′,2″-imidazol]-6′-yl]-3,5-dichloropyridine-2-carboxamide] | 9.2 nM
CO[C@H]1CC[C@]2(CC1)Cc1ccc(NC(=O)c3ccc(Cl)cn3)cc1C21N=C(C)C(N)=N1 (stereo partly drawn) [Example 20q, N-[(1r,4r)-4″-Amino-4-methoxy-5″-methyl-3′H-dispiro[cyclohexane-1,2′-indene-1′,2″-imidazol]-6′-yl]-5-chloropyridine-2-carboxamide] | 3.8 nM
CO[C@H]1CC[C@]2(CC1)Cc1ccc(OCCC(F)(F)F)cc1C21N=C(C)C(N)=N1 (stereo partly drawn) [Example 20u, (1r,4r)-4-methoxy-5″-methyl-6′-(3,3,3-trifluoropropoxy)-3′H-dispiro[cyclohexane-1,2′-indene-1′,2″-imidazol]-4″-amine] | 0.63 nM
CC1=NC2(N=C1N)c1cc(Br)ccc1CC21CCC(F)(F)CC1 (stereo not drawn) [Example 27, 6′-Bromo-4,4-difluoro-5″-methyl-3′H-dispiro[cyclohexane-1,2′-indene-1′,2″-imidazol]-4″-amine] | 399 nM
CC1=NC2(N=C1N)c1cc(-c3cncc(Cl)c3)ccc1CC21CCC(F)(F)CC1 (stereo not drawn) [Example 28c, 6′-(5-Chloropyridin-3-yl)-4,4-difluoro-5″-methyl-3′H-dispiro[cyclohexane-1,2′-indene-1′,2″-imidazol]-4″-amine] | 109 nM

same assay, conditions: Homo sapiens, compounds incubated 17 h, MSD detection

Structure (SMILES) | IC50
CC1=N[C@]2(N=C1N)c1cc(-c3cc(F)cc(C#N)c3)ccc1C[C@]21CC[C@@H](OC(F)F)CC1 (racemic) [Example 105, 3-[(1r,4r)-4″-Amino-4-(difluoromethoxy)-5″-methyl-3′H-dispiro[cyclohexane-1,2′-indene-1′,2″-imidazol]-6′-yl]-5-fluorobenzonitrile] | 9.7 nM
COc1cc(C#N)cc(-c2ccc3c(c2)[C@@]2(N=C(C)C(N)=N2)[C@]2(CC[C@H](OC(F)F)CC2)C3)c1 (racemic) [Example 106, 3-[(1r,4r)-4″-Amino-4-(difluoromethoxy)-5″-methyl-3′H-dispiro[cyclohexane-1,2′-indene-1′,2″-imidazol]-6′-yl]-5-methoxybenzonitrile] | 1.1 nM
COc1cc(C#N)cc(-c2ccc3c(c2)[C@@]2(N=C(C)C(N)=N2)[C@]2(CC[C@H](OC)CC2)C3)c1 (single isomer, unassigned) [Example 92 Isomer 1] | 0.27 nM
CC1=NC2(CCOc3ccc(-c4cc(Cl)cc(Cl)c4)cc32)N=C1N (stereo not drawn) [Example 1, 6-(3,5-Dichlorophenyl)-5′-methylspiro[chroman-4,2′-imidazol]-4′-amine] | 587 nM
CC1=NC2(CCOc3ccc(-c4cncc(Cl)c4)cc32)N=C1N (stereo not drawn) [Example 2, 6-(5-Chloropyridin-3-yl)-5′-methylspiro[chroman-4,2′-imidazol]-4′-amine] | 941 nM
CC1=NC2(CCOc3ccc(-c4cc(F)cc(F)c4)cc32)N=C1N (stereo not drawn) [Example 3, 6-(3,5-Difluorophenyl)-5′-methylspiro[chroman-4,2′-imidazol]-4′-amine] | 2880 nM
CC1=NC2(CCOc3ccc(NC(=O)c4ccc(C(F)(F)F)cn4)cc32)N=C1N (stereo not drawn) [Example 13c, N-(4′-Amino-5′-methylspiro[chroman-4,2′-imidazole]-6-yl)-5-(trifluoromethyl)picolinamide] | 463 nM
CC#CCOc1ccc(C(=O)Nc2ccc3c(c2)C2(CCO3)N=C(C)C(N)=N2)nc1 (stereo not drawn) [Example 13d, N-(4′-amino-5′-methylspiro[chroman-4,2′-imidazole]-6-yl)-5-(but-2-ynyloxy)picolinamide] | 239 nM
CC#CCOc1cnc(C(=O)Nc2ccc3c(c2)C2(CCO3)N=C(C)C(N)=N2)cn1 (stereo not drawn) [Example 13e, N-(4′-Amino-5′-methylspiro[chroman-4,2′-imidazole]-6-yl)-5-(but-2-ynyloxy)pyrazine-2-carboxamide] | 106 nM
CC1=NC2(N=C1N)c1cc(Br)ccc1CC21CCC(OC(F)F)CC1 (stereo not drawn) [Example 15, 6′-Bromo-4-(difluoromethoxy)-5″-methyl-3′H-dispiro[cyclohexane-1,2′-indene-1′,2″-imidazol]-4″-amine] | 46 nM
CC#Cc1ccnc(-c2ccc3c(c2)C2(N=C(C)C(N)=N2)[C@]2(CC[C@H](OC)CC2)C3)c1 (stereo partly drawn) [Example 20b, (1r,4r)-4-Methoxy-5″-methyl-6′-[4-(prop-1-yn-1-yl)pyridin-2-yl]-3′H-dispiro[cyclohexane-1,2′-indene-1′,2″-imidazol]-4″-amine] | 0.78 nM
CO[C@H]1CC[C@]2(CC1)Cc1ccc(-c3cc(C#N)cc(C#N)c3)cc1C21N=C(C)C(N)=N1 (stereo partly drawn) [Example 20c, 5-[(1r,4r)-4″-Amino-4-methoxy-5″-methyl-3′H-dispiro[cyclohexane-1,2′-indene-1′,2″-imidazol]-6′-yl]benzene-1,3-dicarbonitrile] | 1.7 nM
CO[C@H]1CC[C@]2(CC1)Cc1ccc(-c3cncc(F)c3)cc1C21N=C(C)C(N)=N1 (stereo partly drawn) [Example 20f, (1r,4r)-6′-(5-Fluoropyridin-3-yl)-4-methoxy-5″-methyl-3′H-dispiro[cyclohexane-1,2′-indene-1′,2″-imidazol]-4″-amine] | 3.3 nM
CO[C@H]1CC[C@]2(CC1)Cc1ccc(NC(=O)c3ncc(Br)cn3)cc1C21N=C(C)C(N)=N1 (stereo partly drawn) [Example 20j, N-[(1r,4r)-4″-Amino-4-methoxy-5″-methyl-3′H-dispiro[cyclohexane-1,2′-indene-1′,2″-imidazol]-6′-yl]-5-bromopyrimidine-2-carboxamide] | 91 nM
CO[C@H]1CC[C@]2(CC1)Cc1ccc(NC(=O)c3oc4cc(Cl)ccc4c3C)cc1C21N=C(C)C(N)=N1 (stereo partly drawn) [Example 20n, N-[(1r,4r)-4″-Amino-4-methoxy-5″-methyl-3′H-dispiro[cyclohexane-1,2′-indene-1′,2″-imidazol]-6′-yl]-6-chloro-3-methyl-1-benzofuran-2-carboxamide] | 3.7 nM
CO[C@H]1CC[C@]2(CC1)Cc1ccc(OCCCF)cc1C21N=C(C)C(N)=N1 (stereo partly drawn) [Example 20v] | 1.2 nM
CO[C@H]1CC[C@]2(CC1)Cc1ccc(NC(=O)c3ncc(Cl)cc3C)cc1C21N=C(C)C(N)=N1 (stereo partly drawn) [Example 20w, N-[(1r,4r)-4″-Amino-4-methoxy-5″-methyl-3′H-dispiro[cyclohexane-1,2′-indene-1′,2″-imidazol]-6′-yl]-5-chloro-3-methylpyridine-2-carboxamide] | 5.7 nM
CO[C@H]1CC[C@]2(CC1)Cc1ccc(NC(=O)c3ccc(F)cn3)cc1C21N=C(C)C(N)=N1 (stereo partly drawn) [Example 20x, N-[(1r,4r)-4″-Amino-4-methoxy-5″-methyl-3′H-dispiro[cyclohexane-1,2′-indene-1′,2″-imidazol]-6′-yl]-5-fluoropyridine-2-carboxamide] | 29 nM
CC#Cc1cc(-c2ccc3c(c2)C2(N=C(C)C(N)=N2)[C@]2(CC[C@H](OC)CC2)C3)ccn1 (stereo partly drawn) [Example 20y, (1r,4r)-4-Methoxy-5″-methyl-6′-[2-(prop-1-yn-1-yl)pyridin-4-yl]-3′H-dispiro[cyclohexane-1,2′-indene-1′,2″-imidazol]-4″-amine] | 1.2 nM
CC1=NC2(N=C1N)c1cc(-c3cccc(Cl)c3)ccc1CC21CCOCC1 (stereo not drawn) [Example 26a, 6′-(3-Chlorophenyl)-5-methyl-2″,3″,5″,6″-tetrahydro-3′H-dispiro[imidazole-2,1′-indene-2′,4″-pyran]-4-amine] | 53 nM
CC1=NC2(N=C1N)c1cc(-c3ccc(F)c(Cl)c3)ccc1CC21CCOCC1 (stereo not drawn) [Example 26c, 6′-(3-Chloro-4-fluorophenyl)-5-methyl-2″,3″,5″,6″-tetrahydro-3′H-dispiro[imidazole-2,1′-indene-2′,4″-pyran]-4-amine] | 140 nM
CC1=NC2(N=C1N)c1cc(NC(=O)c3ccc(Cl)cn3)ccc1CC21CCC(F)(F)CC1 (stereo not drawn) [Example 28d, N-(4″-Amino-4,4-difluoro-5″-methyl-3′H-dispiro[cyclohexane-1,2′-indene-1′,2″-imidazol]-6′-yl)-5-chloropyridine-2-carboxamide] | 89 nM
